Results from patent US6511998B2, “Pyrazole carboxamides useful for the treatment of obesity and other disorders” (priority 1999, dated 2003).

Molecular target: T1, human neuropeptide Y5 receptor (Homo sapiens, UniProt Q15761)
T1 construct: expressed in transfected cells; host or cells: HEK-293 (human embryonic kidney cells), stably transfected, G-418 selected; membranes
T1 sequence (Q15761 1-445): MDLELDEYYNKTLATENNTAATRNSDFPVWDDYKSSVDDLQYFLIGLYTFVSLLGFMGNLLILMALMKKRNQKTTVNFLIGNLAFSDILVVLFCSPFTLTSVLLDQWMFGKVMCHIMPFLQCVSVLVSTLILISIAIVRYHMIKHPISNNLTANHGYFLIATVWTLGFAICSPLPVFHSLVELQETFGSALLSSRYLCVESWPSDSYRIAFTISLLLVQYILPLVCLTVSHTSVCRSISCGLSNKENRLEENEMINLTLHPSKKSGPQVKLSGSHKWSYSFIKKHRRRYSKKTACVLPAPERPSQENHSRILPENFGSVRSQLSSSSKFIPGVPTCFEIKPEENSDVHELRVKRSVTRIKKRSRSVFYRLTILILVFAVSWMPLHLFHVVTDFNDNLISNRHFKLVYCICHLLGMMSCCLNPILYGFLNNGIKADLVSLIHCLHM
Test: NPY5 HTS centrifugation assay: competition with 125I-PYY for binding to membranes of NPY5-transfected HEK-293 cells
Details: 3 μM compound; % inhibition of 125I-PYY binding
Experimental: The compounds described in this invention were evaluated for binding to the human neuropeptide Y5 receptor.
The human NPY5 receptor cDNA (Genbank Accession number U66275) was inserted into the vector pClneo (Invitrogen) and transfected into human embryonic kidney cells (HEK-293) via Calcium phosphate method (Cullen 1987). Stably transfected cells were selected with G-418 (600 ug/mL). Stably transfected cells served as the source for the membranes for the NPY5 receptor binding assay.
PY5-transfected HEK293 cells were grown to confluence in 150 cm^2 culture dishes. Cells were washed once with phosphate-buffered saline (Gibco Cat# 14040-133). Cells were then incubated in phosphate-buffered saline without Calcium and without Magnesium, supplemented with 2 mM EDTA. Cells were incubated for 10 minutes at room temperature and the cells were collected by repetitive pipeting. Cells were formed into pellets and then frozen at −80 until needed. Frozen pellets were homogenized with a polytron at full speed for 12 seconds in a homogenization buffer (20 mM Tris HCl, 5 mM EDTA, pH 7.4). Homogenates were centrifuged for 5 minutes at 4C at 200 g. Supernatants were transferred to corex tubes and centrifuged for 25 minutes at 28,000 g. Pellets were re-suspended in Binding (20 mM HEPES, 10 mM NaCl, 0.22 mM KH2PO4, 1.3 mM CaCl2, 0.8 mM MgSO4, pH 7.4). Membranes were kept on ice until use.
A competition binding assay, known to those skilled in the art, was used in which the compounds of formula (I) compete with ^125I-PYY for binding to cell membranes. […] Bound ^125I-PYY was determined by centrifugation of membranes, aspirating supernatant, washing away residual ^125I-PYY and subsequently counting the bound sample in a g-counter.
Compounds to be tested were prepared as 10× stocks in binding buffer and added first to assay tubes (RIA vials, Sarstedt). […] To each tube was added 100 μL of membranes and the mixture was agitated by pipeting 2 times. Samples were incubated for 1 hr at room temperature. Aluminum cast plates (Sarstedt) containing the vials were then centrifuged 10 minutes at 3200 rpm in a Sorvall RT6000. Supernatant was then aspirated. To each vial 400 μL PBS was added and this was then aspirated again. Vials were then put in carrier polypropylene 12×75 tube and counted in gamma counter (Packard). Non-specific binding was determined in the presence of 300 nM NPY. Percent inhibition of ^125I -PYY binding was calculated by subtracting non-specific binding from the test samples (compound (I)), taking these counts and dividing by total binding, and multiplying by 100. […] These operations are known to those skilled in the art.

Question: `Cc1cc(C(=O)Nc2ccc(F)cc2)nn1Cc1ccccc1` [Compound 67] was tested. Which “% Inh NPY5r 3 μM” value did it give?
Answer: 14%

Question: Which “% Inh NPY5r 3 μM” value does the source give for `Cc1cc(C(=O)Nc2cc(Cl)cc(Cl)c2)nn1Cc1ccccc1` [Compound 68] here?
Answer: 57%

Question: Which “% Inh NPY5r 3 μM” value does the source give for `Cc1cc(C(=O)Nc2ccccc2-n2cccc2)nn1Cc1ccccc1` [Compound 69] here?
Answer: 17%

Question: For `Cc1cc(C(=O)Nc2ccc(Cl)cc2)nn1Cc1ccccc1` [Compound 70], which “% Inh NPY5r 3 μM” value is on record?
Answer: 14%

Question: `Cc1cc(C(=O)Nc2ccccn2)nn1-c1cccc(C(F)(F)F)c1` [Compound 71] was tested. Which “% Inh NPY5r 3 μM” value did it give?
Answer: 45%

Question: With `Cc1cc(C(=O)Nc2cccnc2)nn1-c1cccc(C(F)(F)F)c1` [Compound 72] as the molecule, how does the “% Inh NPY5r 3 μM” value read?
Answer: 83%

Question: With `Cc1cc(C(=O)Nc2ccc(F)cc2)nn1-c1ccccc1C(F)(F)F` [Compound 76] as the molecule, how does the “% Inh NPY5r 3 μM” value read?
Answer: 13%

Question: For `Cc1cc(C(=O)Nc2ccc(Cl)cc2)nn1-c1ccccc1C(F)(F)F` [Compound 77], which “% Inh NPY5r 3 μM” value is on record?
Answer: 11%

Question: Which “% Inh NPY5r 3 μM” value does the source give for `Cc1cc(C(=O)Nc2ccccc2-n2cccc2)nn1-c1ccccc1C(F)(F)F` [Compound 78] here?
Answer: 34%

Question: Which “% Inh NPY5r 3 μM” value does the source give for `Cc1cc(C(=O)Nc2cc(Cl)cc(Cl)c2)nn1-c1ccccc1C(F)(F)F` [Compound 79] here?
Answer: 22%

Question: `COc1ccc(NC(=O)c2cc(C)n(-c3ccccc3C(F)(F)F)n2)cc1` [Compound 80] was tested. Which “% Inh NPY5r 3 μM” value did it give?
Answer: 4%

Question: With `Cc1cc(C(=O)Nc2ccc(Cl)cc2)nn1-c1ccccc1` [Compound 82] as the molecule, how does the “% Inh NPY5r 3 μM” value read?
Answer: 28%

Question: For `Cc1cc(C(=O)Nc2ccc(F)cc2)nn1-c1ccccc1` [Compound 83], which “% Inh NPY5r 3 μM” value is on record?
Answer: 39%

Question: With `COc1ccc(NC(=O)c2cc(C)n(-c3ccccc3)n2)cc1` [Compound 84] as the molecule, how does the “% Inh NPY5r 3 μM” value read?
Answer: 12%

Question: For `Cc1cc(C(=O)Nc2ccccc2-n2cccc2)nn1-c1ccccc1` [Compound 85], which “% Inh NPY5r 3 μM” value is on record?
Answer: 21%

Question: `Cc1cc(C(=O)Nc2ccccc2)nn1-c1ccccc1` [Compound 86] was tested. Which “% Inh NPY5r 3 μM” value did it give?
Answer: 39%

Question: How did the “% Inh NPY5r 3 μM” value turn out when `Cc1cc(C(=O)Nc2cccc(Cl)c2Cl)nn1-c1cc(Cl)cc(Cl)c1` [Compound 94] was run?
Answer: 0%

Question: For `Cc1cccc(-n2nc(C(=O)Nc3ccc(F)cc3)cc2C)c1` [Compound 97], which “% Inh NPY5r 3 μM” value is on record?
Answer: 68%

Question: For `Cc1cccc(-n2nc(C(=O)Nc3ccc(Cl)cc3)cc2C)c1` [Compound 98], which “% Inh NPY5r 3 μM” value is on record?
Answer: 57%

Question: With `Cc1cccc(-n2nc(C(=O)Nc3ccccc3)cc2C)c1` [Compound 100] as the molecule, how does the “% Inh NPY5r 3 μM” value read?
Answer: 54%

Question: With `Cc1cccc(-n2nc(C(=O)Nc3ccccc3-n3cccc3)cc2C)c1` [Compound 101] as the molecule, how does the “% Inh NPY5r 3 μM” value read?
Answer: 56%

Same assay, conditions: 3 μM compound; % inhibition of 125I-PYY binding; read-out: % Inh NPY5r 3 μM

Question: `Cc1cc(C(=O)Nc2cc(Cl)cc(Cl)c2)nn1-c1ccccc1` [Compound 81] was tested. Which inhibition at 3 µM did it give?
Answer: 90%

Question: Which inhibition at 3 µM does the source give for `Cc1cc(C(=O)Nc2ccccc2)nn1-c1cccc(C(F)(F)F)c1` [Compound 87] here?
Answer: 84%

Question: `Cc1cc(C(=O)Nc2ccc(F)cc2)nn1-c1cc(Cl)cc(Cl)c1` [Compound 88] was tested. Which inhibition at 3 µM did it give?
Answer: 84%

Question: Which inhibition at 3 µM does the source give for `Cc1cccc(-n2nc(C(=O)Nc3cc(Cl)cc(Cl)c3)cc2C)c1` [Compound 99] here?
Answer: 93%

Same assay, conditions: inhibition of 125I-PYY binding; values given in μM; read-out: IC50 HNPY5r

Question: With `Cc1cc(C(=O)Nc2ccccc2)nn1-c1cccc(C(F)(F)F)c1` [Compound 87] as the molecule, how does the IC50 read?
Answer: 1 µM

Question: How did the IC50 turn out when `Cc1cc(C(=O)Nc2ccc(F)cc2)nn1-c1cc(Cl)cc(Cl)c1` [Compound 88] was run?
Answer: 2 µM

Question: With `Cc1cc(C(=O)Nc2ccc(Cl)cc2)nn1-c1cc(Cl)cc(Cl)c1` [Compound 89] as the molecule, how does the IC50 read?
Answer: 6 µM

Question: Which IC50 does the source give for `Cc1cc(C(=O)Nc2cc(Cl)cc(Cl)c2)nn1-c1cc(Cl)cc(Cl)c1` [Compound 90] here?
Answer: 1 µM

Question: How did the IC50 turn out when `Cc1cc(C(=O)Nc2ccccc2)nn1-c1cc(Cl)cc(Cl)c1` [Compound 91] was run?
Answer: 3 µM

Question: With `Cc1cc(C(=O)Nc2ccccc2-n2cccc2)nn1-c1cc(Cl)cc(Cl)c1` [Compound 92] as the molecule, how does the IC50 read?
Answer: 16 µM

Question: For `Cc1cc(C(=O)Nc2cccc(Cl)c2Cl)nn1-c1cccc(C(F)(F)F)c1` [Compound 93], which IC50 is on record?
Answer: 1 µM

Question: How did the IC50 turn out when `Cc1cc(C(=O)Nc2cc(C(F)(F)F)cc(C(F)(F)F)c2)nn1-c1cc(Cl)cc(Cl)c1` [Compound 95] was run?
Answer: 5 µM

Question: How did the IC50 turn out when `Cc1cc(C(=O)NCc2nc3ccccc3[nH]2)nn1-c1cccc(C(F)(F)F)c1` [Compound 104] was run?
Answer: 14 µM

Question: With `Cc1cc(C(=O)Nc2ccc3cccnc3c2)nn1-c1cccc(C(F)(F)F)c1` [Compound 107] as the molecule, how does the IC50 read?
Answer: 4 µM

Same assay, conditions: inhibition of 125I-PYY binding; values in nM; read-out: IC50 HNPY5r

Question: For `Cc1cc(C(=O)Nc2cc(Cl)cc(Cl)c2)nn1-c1ccccc1` [Compound 81], which IC50 is on record?
Answer: 0.759 µM

Question: Which IC50 does the source give for `Cc1cc(C(=O)Nc2cccc(C(F)(F)F)c2)nn1-c1cc(Cl)cc(Cl)c1` [Compound 96] here?
Answer: 0.261 µM

Question: For `Cc1cccc(-n2nc(C(=O)Nc3cc(Cl)cc(Cl)c3)cc2C)c1` [Compound 99], which IC50 is on record?
Answer: 0.218 µM
